From ChEMBL document CHEMBL2413072, “Synthesis and in vitro anticancer studies of novel C-2 arylidene congeners of lantadenes” (2013)

Assays:
Format in all cases: functional
[1] = Growth inhibition of human Hs 578T cells assessed as cell growth at 10 uM by sulforhodamine B assay; conditions: read-out: Activity
[2] = system: RPMI-8226; test: Growth inhibition of human RPMI8226 cells assessed as growth inhibition at 10 uM by sulforhodamine B assay; conditions: read-out: GI
[3] = system: PC-3; test: Growth inhibition of human PC3 cells assessed as growth inhibition at 10 uM by sulforhodamine B assay; conditions: read-out: GI
[4] = system: OVCAR-8; test: Growth inhibition of human OVCAR8 cells assessed as growth inhibition at 10 uM by sulforhodamine B assay; conditions: read-out: GI
[5] = system: UO-31; test: Growth inhibition of human UO31 cells assessed as cell growth at 10 uM by sulforhodamine B assay; conditions: read-out: Activity
[6] = system: MDA-MB-468; test: Growth inhibition of human MDA-MB-468 cells assessed as cell growth at 10 uM by sulforhodamine B assay; conditions: read-out: Activity
[7] = system: MOLT-4; test: Growth inhibition of human MOLT4 cells assessed as growth inhibition at 10 uM by sulforhodamine B assay; conditions: read-out: GI
[8] = system: DU-145; test: Growth inhibition of human DU145 cells assessed as growth inhibition at 10 uM by sulforhodamine B assay; conditions: read-out: GI
[9] = system: SK-MEL-2; test: Growth inhibition of human SK-MEL-2 cells assessed as growth inhibition at 10 uM by sulforhodamine B assay; conditions: read-out: GI
[10] = system: LOX IMVI; test: Growth inhibition of human LOXIMVI cells assessed as growth inhibition at 10 uM by sulforhodamine B assay; conditions: read-out: GI
[11] = system: M14; test: Growth inhibition of human M14 cells assessed as cell growth at 10 uM by sulforhodamine B assay; conditions: read-out: Activity
[12] = system: SF-268; test: Growth inhibition of human SF268 cells assessed as cell growth at 10 uM by sulforhodamine B assay; conditions: read-out: Activity
[13] = system: OVCAR-4; test: Growth inhibition of human OVCAR4 cells assessed as growth inhibition at 10 uM by sulforhodamine B assay; conditions: read-out: GI
[14] = system: SK-OV-3; test: Growth inhibition of human SKOV3 cells assessed as growth inhibition at 10 uM by sulforhodamine B assay; conditions: read-out: GI
[15] = Growth inhibition of human HCC2998 cells assessed as growth inhibition at 10 uM by sulforhodamine B assay; conditions: HCC 2998, read-out: GI
[16] = system: SK-MEL-5; test: Growth inhibition of human SK-MEL-5 cells assessed as growth inhibition at 10 uM by sulforhodamine B assay; conditions: read-out: GI
[17] = system: OVCAR-3; test: Growth inhibition of human OVCAR3 cells assessed as growth inhibition at 10 uM by sulforhodamine B assay; conditions: read-out: GI
[18] = system: MDA-MB-435; test: Growth inhibition of human MDA-MB-435 cells assessed as growth inhibition at 10 uM by sulforhodamine B assay; conditions: read-out: GI
[19] = system: MCF7; test: Growth inhibition of human MCF7 cells assessed as growth inhibition at 10 uM by sulforhodamine B assay; conditions: read-out: GI
[20] = system: UACC-257; test: Growth inhibition of human UACC257 cells assessed as cell growth at 10 uM by sulforhodamine B assay; conditions: read-out: Activity
[21] = Growth inhibition of human EKVX cells assessed as cell growth at 10 uM by sulforhodamine B assay; conditions: read-out: Activity
[22] = system: OVCAR-5; test: Growth inhibition of human OVCAR5 cells assessed as growth inhibition at 10 uM by sulforhodamine B assay; conditions: read-out: GI
[23] = system: SF-295; test: Growth inhibition of human SF295 cells assessed as growth inhibition at 10 uM by sulforhodamine B assay; conditions: read-out: GI
[24] = system: SF-539; test: Growth inhibition of human SF539 cells assessed as cell growth at 10 uM by sulforhodamine B assay; conditions: read-out: Activity
[25] = Growth inhibition of human NCI-ADR-RES cells assessed as cell growth at 10 uM by sulforhodamine B assay; conditions: read-out: Activity
[26] = system: UACC-257; test: Growth inhibition of human UACC257 cells assessed as growth inhibition at 10 uM by sulforhodamine B assay; conditions: read-out: GI
[27] = Growth inhibition of human HCC2998 cells assessed as cell growth at 10 uM by sulforhodamine B assay; conditions: HCC 2998, read-out: Activity
[28] = system: A498; test: Growth inhibition of human A498 cells assessed as cell growth at 10 uM by sulforhodamine B assay; conditions: read-out: Activity
[29] = system: Malme-3M; test: Growth inhibition of human MALME-3M cells assessed as cell growth at 10 uM by sulforhodamine B assay; conditions: read-out: Activity
[30] = system: CAKI-1; test: Growth inhibition of human CAKI-1 cells assessed as cell growth at 10 uM by sulforhodamine B assay; conditions: read-out: Activity
[31] = system: HT-29; test: Growth inhibition of human HT-29 cells assessed as cell growth at 10 uM by sulforhodamine B assay; conditions: read-out: Activity
[32] = system: HT-29; test: Growth inhibition of human HT-29 cells assessed as growth inhibition at 10 uM by sulforhodamine B assay; conditions: read-out: GI
[33] = system: T47D; test: Growth inhibition of human T47D cells assessed as growth inhibition at 10 uM by sulforhodamine B assay; conditions: read-out: GI
[34] = system: ACHN; test: Growth inhibition of human ACHN cells assessed as cell growth at 10 uM by sulforhodamine B assay; conditions: read-out: Activity
[35] = system: OVCAR-8; test: Growth inhibition of human OVCAR8 cells assessed as cell growth at 10 uM by sulforhodamine B assay; conditions: read-out: Activity
[36] = system: MDA-MB-468; test: Growth inhibition of human MDA-MB-468 cells assessed as growth inhibition at 10 uM by sulforhodamine B assay; conditions: read-out: GI
[37] = system: SF-539; test: Growth inhibition of human SF539 cells assessed as growth inhibition at 10 uM by sulforhodamine B assay; conditions: read-out: GI
[38] = system: HOP-62; test: Growth inhibition of human HOP62 cells assessed as growth inhibition at 10 uM by sulforhodamine B assay; conditions: read-out: GI
[39] = system: MDA-MB-231; test: Growth inhibition of human MDA-MB-231 cells assessed as growth inhibition at 10 uM by sulforhodamine B assay; conditions: read-out: GI
[40] = system: KM12; test: Growth inhibition of human KM12 cells assessed as cell growth at 10 uM by sulforhodamine B assay; conditions: read-out: Activity
[41] = system: SNB-75; test: Growth inhibition of human SNB75 cells assessed as growth inhibition at 10 uM by sulforhodamine B assay; conditions: read-out: GI
[42] = system: NCI-H226; test: Growth inhibition of human NCI-H226 cells assessed as growth inhibition at 10 uM by sulforhodamine B assay; conditions: read-out: GI
[43] = system: LOX IMVI; test: Growth inhibition of human LOXIMVI cells assessed as cell growth at 10 uM by sulforhodamine B assay; conditions: read-out: Activity
[44] = system: SK-OV-3; test: Growth inhibition of human SKOV3 cells assessed as cell growth at 10 uM by sulforhodamine B assay; conditions: read-out: Activity
[45] = system: CCRF-CEM; test: Growth inhibition of human CCRF-CEM cells assessed as growth inhibition at 10 uM by sulforhodamine B assay; conditions: read-out: GI
[46] = system: CAKI-1; test: Growth inhibition of human CAKI-1 cells assessed as growth inhibition at 10 uM by sulforhodamine B assay; conditions: read-out: GI
[47] = system: U-251; test: Growth inhibition of human U251 cells assessed as cell growth at 10 uM by sulforhodamine B assay; conditions: read-out: Activity
[48] = system: OVCAR-3; test: Growth inhibition of human OVCAR3 cells assessed as cell growth at 10 uM by sulforhodamine B assay; conditions: read-out: Activity
[49] = system: HCT-15; test: Growth inhibition of human HCT15 cells assessed as cell growth at 10 uM by sulforhodamine B assay; conditions: read-out: Activity

CC1(C)C[C@@H](O)[C@]2(C(=O)O)CC[C@]3(C)C(=CC[C@@H]4[C@@]5(C)CCC(=O)C(C)(C)[C@@H]5CC[C@]43C)[C@@H]2C1
growth at 10 µM [1]: 99.3% | inhibition of growth at 10 µM [2]: 29.8% | inhibition of growth at 10 µM [3]: 40.7% | inhibition of growth at 10 µM [4]: 19.2% | growth at 10 µM [5]: 86.1% | growth at 10 µM [6]: 96.2% | inhibition of growth at 10 µM [7]: 21.3% | inhibition of growth at 10 µM [8]: < 10% | inhibition of growth at 10 µM [9]: < 10% | inhibition of growth at 10 µM [10]: < 10% | growth at 10 µM [11]: 93.4% | growth at 10 µM [12]: 106% | inhibition of growth at 10 µM [13]: 14.1% | inhibition of growth at 10 µM [14]: < 10% | inhibition of growth at 10 µM [15]: < 10% | inhibition of growth at 10 µM [16]: 12.2% | inhibition of growth at 10 µM [17]: < 10% | inhibition of growth at 10 µM [18]: < 10% | inhibition of growth at 10 µM [19]: 18.6% | growth at 10 µM [20]: 91.2% | growth at 10 µM [21]: 99.2% | inhibition of growth at 10 µM [22]: < 10% | inhibition of growth at 10 µM [23]: 19.3% | growth at 10 µM [24]: 106% | growth at 10 µM [25]: 100% | inhibition of growth at 10 µM [26]: < 10% | growth at 10 µM [27]: 91% | growth at 10 µM [28]: 91.2% | growth at 10 µM [29]: 87.1% | growth at 10 µM [30]: 84.8% | growth at 10 µM [31]: 83.2% | inhibition of growth at 10 µM [32]: 16.8% | inhibition of growth at 10 µM [33]: 19.2% | growth at 10 µM [34]: 91.8% | growth at 10 µM [35]: 80.8% | inhibition of growth at 10 µM [36]: < 10% | inhibition of growth at 10 µM [37]: < 10% | inhibition of growth at 10 µM [38]: 11.3% | inhibition of growth at 10 µM [39]: < 10% | growth at 10 µM [40]: 87.7% | inhibition of growth at 10 µM [41]: < 10% | inhibition of growth at 10 µM [42]: < 10% | growth at 10 µM [43]: 93.2% | growth at 10 µM [44]: 102% | inhibition of growth at 10 µM [45]: 12.5% | inhibition of growth at 10 µM [46]: 15.2% | growth at 10 µM [47]: 89.2% | growth at 10 µM [48]: 104% | growth at 10 µM [49]: 75.4%

C/C=C(/C)C(=O)O[C@@H]1CC(C)(C)C[C@H]2C3=CC[C@@H]4[C@@]5(C)CCC(=O)C(C)(C)[C@@H]5CC[C@@]4(C)[C@]3(C)CC[C@@]12C(=O)O [LANTADENE A]
growth at 10 µM [1]: 78.8% | inhibition of growth at 10 µM [2]: 83.3% | inhibition of growth at 10 µM [3]: 62.8% | inhibition of growth at 10 µM [4]: 36.3% | growth at 10 µM [5]: 42.6% | growth at 10 µM [6]: 50.8% | inhibition of growth at 10 µM [7]: 56.7% | inhibition of growth at 10 µM [8]: 17.4% | inhibition of growth at 10 µM [9]: 22.9% | inhibition of growth at 10 µM [10]: 38.2% | growth at 10 µM [11]: 63.8% | growth at 10 µM [12]: 74.1% | inhibition of growth at 10 µM [13]: 23.1% | inhibition of growth at 10 µM [14]: < 10% | inhibition of growth at 10 µM [15]: 38.6% | inhibition of growth at 10 µM [16]: 61.3% | inhibition of growth at 10 µM [17]: 37.4% | inhibition of growth at 10 µM [18]: 12.2% | inhibition of growth at 10 µM [19]: 45.3% | growth at 10 µM [20]: 70% | growth at 10 µM [21]: 49.3% | inhibition of growth at 10 µM [22]: < 10% | inhibition of growth at 10 µM [23]: 72.3% | growth at 10 µM [24]: 78.2% | growth at 10 µM [25]: 73.1% | inhibition of growth at 10 µM [26]: 30% | growth at 10 µM [27]: 61.4% | growth at 10 µM [28]: 76.2% | growth at 10 µM [29]: 80.4% | growth at 10 µM [30]: 48.4% | growth at 10 µM [31]: 67.9% | inhibition of growth at 10 µM [32]: 32.1% | inhibition of growth at 10 µM [33]: 36.1% | growth at 10 µM [34]: 53.9% | growth at 10 µM [35]: 63.7% | inhibition of growth at 10 µM [36]: 49.2% | inhibition of growth at 10 µM [37]: 21.8% | inhibition of growth at 10 µM [38]: 24.4% | inhibition of growth at 10 µM [39]: 24.3% | growth at 10 µM [40]: 40% | inhibition of growth at 10 µM [41]: 13.1% | inhibition of growth at 10 µM [42]: 18% | growth at 10 µM [43]: 61.8% | growth at 10 µM [44]: 90.1% | inhibition of growth at 10 µM [45]: 56.4% | inhibition of growth at 10 µM [46]: 51.6% | growth at 10 µM [47]: 60.1% | growth at 10 µM [48]: 62.6% | growth at 10 µM [49]: 30.2%
